Results published in patent publication US20250281574A1 (priority 2022, published 2025).
“Also recorded” adds a separate entry of the source. Peptide text beside a SMILES is read from it. * marks the point of attachment. Biotin = O=C1N[C@H]2[C@H](CS[C@H]2CCCCC(=O)*)N1; Ahx = NCCCCCC(=O)O

Columns and labels:
[1] = system: normal human bronchial epithelial (NHBE) cells; test: Trans-epithelial electrical resistance (TER) after LPS exposure; assay type: cell-based; conditions: aCT1 pre-treatment, 10 μg LPS, 72 hours
Experimental: Normal human bronchial epithelial (NHBE) cells were exposed to 10 μg LPS. […] (n=3/group; p-values reported at 72 hours compared to LPS).
(§1) To determine if aCT1 treatment preserves junctional integrity in human lung cells, human bronchial epithelial cells (NHBEs) were grown as confluent monolayers on Transwell inserts and trans-epithelial electrical resistance (TER) recorded. TER readings measure electrical resistance across a cell monolayer and provide a quantitative metric of intercellular junction integrity.

[2] = Intravenous (bolus) toxicity in rats; conditions: rat, in vivo, intravenous administration, read-out: Maximum Tolerated Dose (clinical signs observed)
Experimental: Intravenous administration (bolus) of aCT1 in rats was well tolerated and a 5 mg/kg dosing level was established as the no-observable-adverse-effect level (NOAEL). Clinical signs were only observed at aCT1 administration levels that are well above the therapeutic range of efficacy, following intravenous administration of aCT1 at ≥10 mg/kg (Maximum Tolerated Dose). The results of these studies uniformly support aCT1 tolerability when delivered locally and systemically via various routes.

[3] = system: cecal ligation and puncture (CLP) mouse model of sepsis; test: Cecal ligation and puncture (CLP) mouse model of sepsis; assay type: in vivo
Text: 3A. For FIG. 3A, n=7-9/group and p=0.052 by Log-rank Mantel-Cox test; for FIG. 3B, n=8/group and p<0.05 by Log-rank Mantel-Cox test. Doses are reported as administered dose, with estimated animal body weight of 25 grams.
Representative images are shown.

[4] = system: normal human bronchial epithelial (NHBE) cells; test: Trans-epithelial electrical resistance (TER) after H2O2 exposure; assay type: cell-based; conditions: NHBE monolayers; aCT1 pre-treatment; 500 mM H2O2; 72 hours
Experimental: (n=3/group; p-values reported at 72 hours compared to H2O2).
as §1

[5] = system: C57BL/6 mice challenged with a lethal dose of lipopolysaccharide (LPS); test: LPS-induced lung injury mouse model of ARDS, survival; assay type: in vivo
Experimental: C57BL/6 mice were pretreated with either 5.76 mg/kg aCT1 peptide, 5.76 mg/kg control peptide, or PBS vehicle control prior to inoculation with a lethal dose (35 mg/kg) of LPS. For FIG. 2A, n=20-22/group and p<0.0001 by Log-rank Mantel-Cox test; for FIG. 2B, n=5-8/group and p<0.001 by Log-rank Mantel-Cox test. Doses are reported as presented dose, with estimated animal body weight of 25 grams.
Studies were undertaken to assess whether delivery of aCT1 to the respiratory tract in animal models of ARDS would reduce epithelial and endothelial breakdown, thereby preserving the air-liquid barrier while preventing fluid accumulation and reducing immune cell infiltration, resulting in the amelioration of ARDS pathology and preserving lung function to improve survival. Using a well characterized mouse model of ARDS, we investigated whether aCT1 applied directly to the lungs could inhibit severe endotoxin induced lung injury. C57BL/6 mice were intranasally challenged with a lethal dose of lipopolysaccharide (LPS) and were treated with aCT1 immediately prior to LPS administration (FIG. 2A), or six (6) hours post LPS exposure (FIG. 2B).

[6] = human
Text: (§2) Clinical trials have been undertaken to assess safety of topical delivery of aCT1.

[7] = system: human subjects
Text: as §2

[8] = system: ocular corneal injury models; conditions: cited from earlier work
[9] = system: normal human bronchial epithelial cells (NHBEs); conditions: NHBEs treated with 100 mM alcohol

With `CC[C@H](C)[C@H](NC(=O)[C@H](CCC(=O)O)NC(=O)[C@H](CC(C)C)NC(=O)[C@H](CC(=O)O)NC(=O)[C@H](CC(=O)O)NC(=O)[C@@H]1CCCN1C(=O)[C@H](CCCNC(=N)N)NC(=O)[C@@H]1CCCN1C(=O)[C@H](CCCNC(=N)N)NC(=O)[C@H](CCCCN)NC(=O)[C@H](CCCCN)NC(=O)[C@H](Cc1c[nH]c2ccccc12)NC(=O)[C@@H]1CCCN1C(=O)[C@H](CCCCN)NC(=O)[C@H](CCCNC(=N)N)NC(=O)[C@H](CCCNC(=N)N)NC(=O)[C@H](CC(N)=O)NC(=O)[C@@H]1CCCN1C(=O)[C@H](Cc1ccccc1)NC(=O)[C@H](Cc1c[nH]c2ccccc12)NC(=O)[C@@H](NC(=O)[C@H](CCCCN)NC(=O)[C@@H]1CCCN1C(=O)[C@H](CCC(N)=O)NC(=O)[C@H](CCCNC(=N)N)NC(=O)CCCCCNC(=O)CCCC[C@@H]1SC[C@@H]2NC(=O)N[C@@H]21)[C@@H](C)CC)C(=O)O` [aCT1] ({Biotin-Ahx}-RQPKIWFPNRRKPWKKRPRPDDLEI-OH; N-terminus and C-terminus assumed) the “TER / barrier integrity” value [1] was “stabilized barrier integrity; also recorded: significantly improved TER readings”, the MTD [2] was ≥ 10 mg/kg and the “immune cell infiltration and alveolar edema (H&E lung histopathology)” value ([3]; 14.34 mg/kg aCT1 immediately after CLP, lungs at 12 hours post CLP) was “significantly decreased immune cell infiltration and alveolar edema”. For the same compound, the survival ([3]; 14.34 mg/kg aCT1 intravenously immediately after CLP, p=0.052 Log-rank) was “prolonged survival”, the survival ([3]; aCT1 intravenously 6 hours post CLP, p<0.05 Log-rank) was “prolonged survival” and the “TER / intercellular junction integrity” value [4] was “stabilized intercellular junctions; also recorded: significantly increased TER readings”. The survival ([5]; lethal LPS 35 mg/kg intranasal, 5.76 mg/kg aCT1 intranasal immediately prior to LPS, p<0.0001 Log-rank) was “provides significant protection against lipopolysaccharide (LPS)-induced mortality; also recorded: significantly improved survival”, the survival ([5]; lethal LPS, aCT1 six hours post LPS, p<0.001 Log-rank) was “provides significant protection against lipopolysaccharide (LPS)-induced mortality; also recorded: significantly improved survival” and the half-life [6] was 15 to 20 min. For the same compound, the “immunogenicity (anti-aCT1 antibodies)” value ([7]; any preclinical study or clinical trial) was “not immunogenic”, the systemic exposure ([7]; pharmacokinetic studies in clinical trials, topical) was “no systemic exposure” and the “drug related adverse events” value ([7]; topical delivery, over 482 human subjects) was “no drug related adverse events”. The inflammatory signaling molecules [8] was “reduced inflammatory signaling molecules such as IL-6, IL-1β, TNFα, Cox-2, MMP-9, and VEGF” and the “electrical resistance (barrier function)” value [9] was “improved electrical resistance”.
